pIC50: −log10 of the molar value.
Tests used:
Format in all cases: cell-based
human TLR9 = biological target: T1, human TLR9 (Homo sapiens, UniProt Q9NR96); assay: TLR9 inhibition reporter assay (HEK-Blue cells, SEAP reporter, ODN2006 stimulation); conditions: HEK-Blue cells overexpressing human TLR9, SEAP reporter, ODN2006 5 nM
T1 construct: host or cells: HEK-Blue cells
T1 sequence (Q9NR96 26-1032): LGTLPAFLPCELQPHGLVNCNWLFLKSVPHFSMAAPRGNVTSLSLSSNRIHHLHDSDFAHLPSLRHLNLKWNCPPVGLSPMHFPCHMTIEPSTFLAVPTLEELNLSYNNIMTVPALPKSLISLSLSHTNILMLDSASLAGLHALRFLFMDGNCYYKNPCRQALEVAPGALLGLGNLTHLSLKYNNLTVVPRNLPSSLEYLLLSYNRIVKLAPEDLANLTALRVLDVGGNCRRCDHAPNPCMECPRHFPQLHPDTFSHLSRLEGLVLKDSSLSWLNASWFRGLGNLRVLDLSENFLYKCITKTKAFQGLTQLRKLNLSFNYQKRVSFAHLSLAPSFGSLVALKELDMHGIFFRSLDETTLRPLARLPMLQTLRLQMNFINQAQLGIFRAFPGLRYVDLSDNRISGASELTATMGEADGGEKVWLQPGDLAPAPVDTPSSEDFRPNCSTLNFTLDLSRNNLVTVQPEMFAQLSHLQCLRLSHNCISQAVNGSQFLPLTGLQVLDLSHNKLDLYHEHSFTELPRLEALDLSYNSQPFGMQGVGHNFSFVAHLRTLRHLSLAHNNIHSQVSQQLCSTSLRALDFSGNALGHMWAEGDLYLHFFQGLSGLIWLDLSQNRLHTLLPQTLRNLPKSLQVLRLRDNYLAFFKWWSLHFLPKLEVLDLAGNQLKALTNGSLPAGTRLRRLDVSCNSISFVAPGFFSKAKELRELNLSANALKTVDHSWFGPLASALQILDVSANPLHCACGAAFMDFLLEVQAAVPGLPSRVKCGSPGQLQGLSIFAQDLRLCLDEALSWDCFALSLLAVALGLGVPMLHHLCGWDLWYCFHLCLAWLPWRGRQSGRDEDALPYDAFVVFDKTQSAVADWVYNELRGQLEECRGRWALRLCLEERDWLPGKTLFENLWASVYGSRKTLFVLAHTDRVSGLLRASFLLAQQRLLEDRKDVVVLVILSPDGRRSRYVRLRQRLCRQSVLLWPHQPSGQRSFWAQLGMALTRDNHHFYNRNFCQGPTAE
Method in brief: (§1)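 HEK-Blue cells with NF-κB/AP-1-driven SEAP reporter, pre-treated 30 min at room temperature with compound (0.05 nM-50 μM). Stimulants: gardiquimod 7.5 μM (TLR7), R848 15.9 μM (TLR8) or ODN2006 5 nM (TLR9). SEAP measured after 22 h at 37° C.; percent inhibition versus agonist-plus-DMSO and known-inhibitor wells.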

human TLR8 = biological target: T2, human TLR8 (Homo sapiens, UniProt Q9NR97); assay: TLR8 inhibition reporter assay (HEK-Blue cells, SEAP reporter, R848 stimulation); conditions: HEK-Blue cells overexpressing human TLR8, SEAP reporter, R848 15.9 μM
T2 construct: host or cells: HEK-Blue cells
T2 sequence (Q9NR97 27-1041): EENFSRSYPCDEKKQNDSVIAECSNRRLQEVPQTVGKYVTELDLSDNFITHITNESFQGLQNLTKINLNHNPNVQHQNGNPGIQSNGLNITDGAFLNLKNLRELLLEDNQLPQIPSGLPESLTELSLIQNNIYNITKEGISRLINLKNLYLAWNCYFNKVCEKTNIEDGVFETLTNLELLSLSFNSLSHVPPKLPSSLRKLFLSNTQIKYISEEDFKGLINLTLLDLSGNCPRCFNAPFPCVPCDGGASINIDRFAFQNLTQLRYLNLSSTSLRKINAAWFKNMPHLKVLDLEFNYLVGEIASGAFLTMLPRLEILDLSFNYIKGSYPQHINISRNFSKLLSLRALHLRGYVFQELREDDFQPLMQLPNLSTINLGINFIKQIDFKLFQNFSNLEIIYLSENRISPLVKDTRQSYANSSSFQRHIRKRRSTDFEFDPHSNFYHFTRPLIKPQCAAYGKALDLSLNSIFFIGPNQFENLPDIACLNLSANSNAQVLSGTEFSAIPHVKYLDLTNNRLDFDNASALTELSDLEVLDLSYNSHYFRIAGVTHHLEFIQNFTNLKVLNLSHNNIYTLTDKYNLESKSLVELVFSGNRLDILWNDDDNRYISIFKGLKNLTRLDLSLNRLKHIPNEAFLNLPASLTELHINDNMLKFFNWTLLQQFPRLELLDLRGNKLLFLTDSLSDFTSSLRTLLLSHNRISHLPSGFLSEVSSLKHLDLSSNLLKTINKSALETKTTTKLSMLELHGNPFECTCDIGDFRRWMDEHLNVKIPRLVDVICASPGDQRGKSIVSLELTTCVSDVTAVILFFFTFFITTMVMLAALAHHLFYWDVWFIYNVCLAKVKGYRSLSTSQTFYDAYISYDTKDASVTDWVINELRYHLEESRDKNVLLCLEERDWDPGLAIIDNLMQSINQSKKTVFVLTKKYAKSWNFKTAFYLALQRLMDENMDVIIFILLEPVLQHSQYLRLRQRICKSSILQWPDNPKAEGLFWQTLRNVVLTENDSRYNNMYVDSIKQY
Method in brief: as §1

human TLR7 = biological target: T3, human TLR7 (Homo sapiens, UniProt Q9NYK1); assay: TLR7 inhibition reporter assay (HEK-Blue cells, SEAP reporter, gardiquimod stimulation); conditions: HEK-Blue cells overexpressing human TLR7, SEAP reporter, gardiquimod 7.5 μM
T3 construct: host or cells: HEK-Blue cells
T3 sequence (Q9NYK1 27-1049): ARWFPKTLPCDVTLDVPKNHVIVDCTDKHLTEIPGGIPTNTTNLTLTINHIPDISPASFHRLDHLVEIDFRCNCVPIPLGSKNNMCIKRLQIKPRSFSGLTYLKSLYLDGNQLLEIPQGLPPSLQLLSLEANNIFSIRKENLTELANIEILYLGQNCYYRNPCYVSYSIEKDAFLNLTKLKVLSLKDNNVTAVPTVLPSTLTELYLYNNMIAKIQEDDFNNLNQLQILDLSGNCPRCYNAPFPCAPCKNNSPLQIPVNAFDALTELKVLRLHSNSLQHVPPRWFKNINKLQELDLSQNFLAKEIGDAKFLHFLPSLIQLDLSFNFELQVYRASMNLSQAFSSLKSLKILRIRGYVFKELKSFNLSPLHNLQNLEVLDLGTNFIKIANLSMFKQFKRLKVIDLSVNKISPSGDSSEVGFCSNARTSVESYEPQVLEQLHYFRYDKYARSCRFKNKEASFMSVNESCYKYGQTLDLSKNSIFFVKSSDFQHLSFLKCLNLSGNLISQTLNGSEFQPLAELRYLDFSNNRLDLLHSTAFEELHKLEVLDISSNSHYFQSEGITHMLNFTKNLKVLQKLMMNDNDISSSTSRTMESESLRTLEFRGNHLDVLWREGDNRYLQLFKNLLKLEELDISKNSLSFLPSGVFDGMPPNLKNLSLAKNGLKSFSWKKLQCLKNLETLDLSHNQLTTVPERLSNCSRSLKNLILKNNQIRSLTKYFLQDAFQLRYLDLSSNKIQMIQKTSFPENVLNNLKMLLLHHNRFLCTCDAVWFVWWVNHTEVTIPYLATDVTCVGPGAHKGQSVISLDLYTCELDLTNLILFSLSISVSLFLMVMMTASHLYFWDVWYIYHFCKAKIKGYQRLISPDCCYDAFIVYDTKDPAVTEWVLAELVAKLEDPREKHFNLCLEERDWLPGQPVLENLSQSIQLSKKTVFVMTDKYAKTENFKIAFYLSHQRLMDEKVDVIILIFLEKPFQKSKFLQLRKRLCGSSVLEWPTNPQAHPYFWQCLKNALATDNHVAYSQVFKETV
Method in brief: as §1

Structure (SMILES)	pIC50 (human TLR9)	pIC50 (human TLR8)	pIC50 (human TLR7)
COc1cc(-c2[nH]c3ccc(C4CN(C)CCO4)cc3c2C(C)C)cn2ncnc12 (stereo not drawn) [Example 301]	5.21	9.25	8.15
COc1cc(-c2[nH]c3ccc(C4CN(C(C)C)CCO4)cc3c2C(C)C)cn2ncnc12 (stereo not drawn) [Example 302]	5.59	9.38	8.70
Cc1cc(-c2[nH]c3ccc(C4CN(C(C)C)CCO4)cc3c2C(C)C)cc(C)n1 (stereo not drawn) [Example 303]	6.16	7.92	7.82
Cc1cc(-c2[nH]c3ccc(C4CN(C5COC5)CCO4)cc3c2C(C)C)cc(C)n1 (stereo not drawn) [Example 304]	< 4.30	6.97	7.05
Cc1cc(-c2[nH]c3ccc(C4CN(C(C)C)CCO4)cc3c2C(C)C)cc(C)n1 (stereo not drawn) [Example 305]	5.99	9.03	7.49
Cc1cc(-c2[nH]c3ccc(C4CN(CC(=O)N(C)C)CCO4)cc3c2C(C)C)cn2ncnc12 (stereo not drawn) [Example 306, 2-(2-(3-isopropyl-2-(8-methyl-[1,2,4]triazolo[1,5-a]pyridin-6-yl)-1H-indol-5-yl)morpholino)-N,N-dimethylacetamide]	< 4.30	7.41	8.10
CNC(=O)CN1CCOC(c2ccc3[nH]c(-c4cc(C)c5ncnn5c4)c(C(C)C)c3c2)C1 (stereo not drawn) [Example 307]	< 4.30	7.33	8.10
CNC(=O)CN1CCOC(c2ccc3[nH]c(-c4cc(OC)c5ncnn5c4)c(C(C)C)c3c2)C1 (stereo not drawn) [Example 310]	< 4.30	7.24	7.82
CNC(=O)CN1CCOC(c2ccc3[nH]c(-c4cn5ncnc5c(C)c4C)c(C(C)C)c3c2)C1 (stereo not drawn) [Example 311]	< 4.30	7.42	7.77
Cc1c(-c2[nH]c3ccc(C4CN(CC(=O)N(C)C)CCO4)cc3c2C(C)C)cn2ncnc2c1C (stereo not drawn) [Example 312]	< 4.30	7.68	7.34
CNC(=O)CN1CCOC(c2ccc3[nH]c(-c4cn5ncnc5c(C)c4C)c(C(C)C)c3c2)C1 (stereo not drawn) [Example 313]	< 4.30	7.22	7.60
COc1cc(-c2[nH]c3ccc(C4CN(CC(=O)N(C)C)CCO4)cc3c2C(C)C)cn2ncnc12 (stereo not drawn) [Example 314]	< 4.30	7.89	7.62
CNC(=O)CN1CCOC(c2ccc3[nH]c(-c4cc(OC)c5ncnn5c4)c(C(C)C)c3c2)C1 (stereo not drawn) [Example 315]	< 4.30	7.59	8.05
CNC(=O)CN1CCOC(c2ccc3[nH]c(-c4cc(C)c5ncnn5c4)c(C(C)C)c3c2)C1 (stereo not drawn) [Example 317]	< 4.30	7.05	7.92
Cc1cc(-c2[nH]c3ccc(C4CN(CC(N)=O)CCO4)cc3c2C(C)C)cn2ncnc12 (stereo not drawn) [Example 318]	< 4.30	7.32	8.22
Cc1c(-c2[nH]c3ccc(C4CN(CC(N)=O)CCO4)cc3c2C(C)C)cn2ncnc2c1C (stereo not drawn) [Example 319]	< 4.30	7.62	7.85
Cc1c(-c2[nH]c3ccc(C4CN(CC(N)=O)CCO4)cc3c2C(C)C)cn2ncnc2c1C (stereo not drawn) [Example 320]	< 4.30	7.27	7.80
Cc1c(-c2[nH]c3ccc(C4CN(CC(=O)N(C)C)CCO4)cc3c2C(C)C)cn2ncnc2c1C (stereo not drawn) [Example 321]	< 4.30	7.60	7.82
Cc1cc(-c2[nH]c3ccc(C4CN(CC(=O)N(C)C)CCO4)cc3c2C(C)C)cc(C)n1 (stereo not drawn) [Example 322]	4.69	7.07	7.16
CNC(=O)CN1CCOC(c2ccc3[nH]c(-c4cc(C)nc(C)c4)c(C(C)C)c3c2)C1 (stereo not drawn) [Example 323]	< 4.30	7.27	7.46
Cc1cc(-c2[nH]c3ccc(C4CN(CC(N)=O)CCO4)cc3c2C(C)C)cc(C)n1 (stereo not drawn) [Example 324]	4.35	6.94	7.36

— patent US11878975B2, “Substituted indole compounds useful as TLR inhibitors” (BRISTOL-MYERS SQUIBB COMPANY, priority 2017, dated 2024)
